# Patent US20050288347A1, “Certain triazole-based compounds, compositions, and uses thereof” (priority 2004, published 2005)
# Entries after “also recorded” stand apart in the source; their conditions may differ.
# System: protein kinase
# Assay: HTS ATP-utilizing enzyme assay, off-chip mobility-shift format (Caliper HTS 250)
# Type: biochemical, human
# Conditions: test compound 10 μM; active = activity greater than three-sigma from the mean of the predominately inactive population for that enzyme
# Method in brief: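 Single-point screen at 10 μM compound in HEPES pH 7.5 buffer with Triton X-100 and BSA, 2.5 h at 20–22 °C. Substrate-to-phosphopeptide ratio measured by off-chip microfluidic mobility shift; EDTA wells as 100% and DMSO wells as 0% control, hits called at three-sigma limits.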
row,Compound,protein kinase against which the compound exhibits inhibitory activity (Table 3)
1,CSCCc1nnc(SCC(O)C(F)(F)F)[nH]1 (centres unmarked),GSK3-α
2,OC(CSc1nnc(-c2cccc(C(F)(F)F)c2)[nH]1)C(F)(F)F (centres unmarked),AURORA-A; also recorded: FLT-3; also recorded: GSK3-β
3,COc1ccccc1-n1c(SCC(=O)N2CCCC2)nnc1-c1ccccc1O,PRAK
4,CCCN(CCC)C(=O)CSc1nnc(-c2ccccc2O)n1-c1ccccc1OC,KIT and AURORA-A and PKA
5,CNC(=O)CSc1nnc(-c2ccccc2O)n1-c1ccccc1OC,AURORA-A
6,NC(=O)CSc1nnc(-c2ccc(OC(F)(F)F)cc2)[nH]1,AURORA-A; also recorded: GSK3-β; also recorded: DYRK2
7,COc1ccc(-n2c(SCc3nnc(-c4ccccc4)o3)nnc2-c2ccncc2)cc1,GSK3-α
8,O=c1[nH]c(CSc2nnc(-c3ccccc3O)n2CCc2ccccc2)nc2ccccc12,AKT1
9,COc1ccc(-c2nnc(SCc3nnc(-c4ccccc4)o3)n2C)cc1OC,GSK3-α; also recorded: CHEK2
10,COc1ccc(-n2c(CNc3ccccc3Cl)nnc2SCc2ccc(Cl)cc2)cc1,MAPKALPK-2 and AKT1
11,CCOCCSc1nnc(-c2ccc([N+](=O)[O-])cc2)[nH]1,FLT-3; also recorded: AURORA-A; also recorded: GSK3-α
12,CCn1c(COc2ccccc2OC)nnc1SCc1ccc(Cl)cc1,CDK2-cyclinE
13,CCn1c(COc2ccc(OC)cc2)nnc1SCc1ccc(Cl)cc1,CDK2-cyclinE
14,COCCCn1c(SCc2ccccc2Cl)nnc1-c1ccc(C(C)(C)C)cc1,CDK1
15,OC(CSc1nnc(-c2ccc(Cl)c(Cl)c2)[nH]1)C(F)(F)F (centres unmarked),AURORA-A; also recorded: FLT-3; also recorded: GSK3-β
16,OCC(O)CSc1nnc(-c2ccc(OC(F)(F)F)cc2)[nH]1 (centres unmarked),AURORA-A; also recorded: FLT-3; also recorded: DYRK2
17,COc1ccccc1-n1c(SCCC(=O)O)nnc1C1CCCCC1,GSK3-α
18,Clc1ccc(CSc2nnc(-c3ccncc3)n2Cc2ccco2)c(Cl)c1,MSK2 and MSK1 and AKT3
19,Clc1ccc(CSc2nnc(-c3ccncc3)n2Cc2ccco2)cc1,MSK1 and MSK2 and AKT3
20,COc1ccc(N)cc1Cc1nnc(SCc2c(Cl)cccc2Cl)n1-c1ccccc1,PDGFRR-α and FLT-3 and FYN
21,COc1ccccc1-n1c(SCC(=O)Nc2cc(NC(=O)c3ccco3)ccc2C)nnc1-c1ccccc1O,AURORA-A
22,CN(C)CCCSc1nnc(C2CCCC2)[nH]1,c-TAK1
23,OCC(O)CSc1nnc(CCc2ccccc2)[nH]1 (centres unmarked),GSK3-α
24,COc1ccc(NCc2nnc(SCc3ccccc3)n2-c2ccc(OC)cc2)cc1,PDGFRR-α and FLT-3 and FYN
25,COc1ccc(-n2c(CNc3ccc(C)cc3)nnc2SCc2ccccc2)cc1,FLT-3; also recorded: PDGFRR-α
26,CCN(CC)S(=O)(=O)c1ccc(-c2nnc(SCc3nnc(-c4ccccc4)o3)n2CC)cc1,GSK3-α
27,CN(C)CCCSc1nnc(-c2cccc(C(F)(F)F)c2)[nH]1,CHEK2; also recorded: c-TAK1; also recorded: GSK3-β
28,CN(C)CCCSc1nnc(-c2ccc(OC(F)(F)F)cc2)[nH]1,c-TAK1; also recorded: AURORA-A; also recorded: CHEK2
29,COc1ccccc1-n1c(SCCC(=O)OCc2ccccc2)nnc1C1CCCCC1,AURORA-A
